Data taken from publication PMC5615155 (Toxicology Reports, 2017).
Like-named read-outs stand apart in the source and are kept apart here.

How the values were obtained:
[1] = in vitro microsomal metabolism; type: in vitro ADME, human; conditions: 10 μM, 0.5 mg/mL, +NADPH, 120 min
[2] = in vitro microsomal metabolism; type: in vitro ADME, Sprague-Dawley rat; conditions: 10 μM, 0.5 mg/mL, +NADPH, 120 min
E. coli strain WP2 uvrA = conditions: up to 5000 μg/plate, with and without metabolic activation; cited from earlier work
[3] = test system: S. typhimurium strains TA98, TA100, TA1535, TA1537; conditions: up to 5000 μg/plate, with and without metabolic activation; cited from earlier work
HPBLs = conditions: cited from earlier work
CHO-WBL cells = conditions: ± metabolic activation, up to 2500 μg/mL; cited from earlier work
[4] = cited from earlier work
[5] = Day 1 of 90-day study, cited from earlier work
[6] = male mice, 2000 mg/kg bw; cited from earlier work

O=C1CC2(CCCC2)CC(=O)N1CCCCN1CCN(c2ncccn2)CC1 [Buspirone, reference compound]
% MS (EIC) peak area of parent relative to time 0 [1]: 2% | % MS (EIC) peak area of parent relative to time 0 [2]: 21%

CC(C)CC(=O)N1CCC[C@H](COc2cccc3c2C(N)=NS(=O)(=O)N3)C1 [S617, (S)-1-(3-(((4-amino-2,2-dioxido-1H-benzo[c][1,2,6]thiadiazin-5-yl)oxy)methyl)piperidin-1-yl)-3-methylbutan-1-one]
bacterial reverse mutation result (E. coli strain WP2 uvrA): non-mutagenic | bacterial reverse mutation result [3]: non-mutagenic | chromosome aberration result (HPBLs): non-clastogenic | in vitro micronucleus result (CHO-WBL cells): neither clastogenic nor aneugenic | AUClast ([4]; iv 1.0 mg/kg, F): 212 ng·h/mL | Cmax ([4]; iv 1.0 mg/kg, F): 1308 ng/mL | Tmax ([4]; iv 1.0 mg/kg, F): 0.03 h | AUClast ([4]; iv 1.0 mg/kg, M): 263 ng·h/mL | Cmax ([4]; iv 1.0 mg/kg, M): 1663 ng/mL | Tmax ([4]; iv 1.0 mg/kg, M): 0.03 h | %F ([4]; oral gavage 10 mg/kg, F): 1.73% | AUClast ([4]; oral gavage 10 mg/kg, F): 36.7 ng·h/mL | Cmax ([4]; oral gavage 10 mg/kg, F): 4.80 ng/mL | Tmax ([4]; oral gavage 10 mg/kg, F): 0.88 h | t1/2 ([4]; oral gavage 10 mg/kg, F): 4.25 h | %F ([4]; oral gavage 10 mg/kg, M): 0.67% | AUClast ([4]; oral gavage 10 mg/kg, M): 17.5 ng·h/mL | Cmax ([4]; oral gavage 10 mg/kg, M): 3.30 ng/mL | Tmax ([4]; oral gavage 10 mg/kg, M): 0.44 h | t1/2 ([4]; oral gavage 10 mg/kg, M): 3.85 h | %F ([4]; oral gavage 30 mg/kg, F): 0.89% | AUClast ([4]; oral gavage 30 mg/kg, F): 56.3 ng·h/mL | Cmax ([4]; oral gavage 30 mg/kg, F): 9.40 ng/mL | Tmax ([4]; oral gavage 30 mg/kg, F): 1.38 h | t1/2 ([4]; oral gavage 30 mg/kg, F): 3.57 h | %F ([4]; oral gavage 30 mg/kg, M): 0.54% | AUClast ([4]; oral gavage 30 mg/kg, M): 42.5 ng·h/mL | Cmax ([4]; oral gavage 30 mg/kg, M): 7.10 ng/mL | Tmax ([4]; oral gavage 30 mg/kg, M): 1.25 h | t1/2 ([4]; oral gavage 30 mg/kg, M): 3.03 h | %F ([4]; oral gavage 100 mg/kg, F): 0.44% | AUClast ([4]; oral gavage 100 mg/kg, F): 92.6 ng·h/mL | Cmax ([4]; oral gavage 100 mg/kg, F): 18.3 ng/mL | Tmax ([4]; oral gavage 100 mg/kg, F): 0.50 h | t1/2 ([4]; oral gavage 100 mg/kg, F): 1.45 h | %F ([4]; oral gavage 100 mg/kg, M): 0.20% | AUClast ([4]; oral gavage 100 mg/kg, M): 53.2 ng·h/mL | Cmax ([4]; oral gavage 100 mg/kg, M): 10.1 ng/mL | Tmax ([4]; oral gavage 100 mg/kg, M): 1.38 h | t1/2 ([4]; oral gavage 100 mg/kg, M): 3.48 h

CCCNC(=O)C(C)(C)COc1cccc2c1C(N)=NS(=O)(=O)N2 [S6973, 3-((4-amino-2,2-dioxido-1H-benzo[c][1,2,6]thiadiazin-5-yl)oxy)-2,2-dimethyl-N-propylpropanamide]
bacterial reverse mutation result (E. coli strain WP2 uvrA): non-mutagenic | bioavailability, food ad-mix ([5]; 5.0 mg/kg bw): 8.04% | bioavailability, food ad-mix ([5]; 20 mg/kg bw): 7.73% | bacterial reverse mutation result [3]: non-mutagenic | in vivo micronucleus result [6]: neither clastogenic nor aneugenic | chromosome aberration result (HPBLs): non-clastogenic | AUClast ([4]; iv 2.5 mg/kg, M): 1760 ng·h/mL | Cmax ([4]; iv 2.5 mg/kg, M): 3997 ng/mL | Tmax ([4]; iv 2.5 mg/kg, M): 0.083 h | t1/2 ([4]; iv 2.5 mg/kg, M): 0.78 h | %F ([4]; oral gavage 5.0 mg/kg, M): 9.56% | AUClast ([4]; oral gavage 5.0 mg/kg, M): 337 ng·h/mL | Cmax ([4]; oral gavage 5.0 mg/kg, M): 74.8 ng/mL | Tmax ([4]; oral gavage 5.0 mg/kg, M): 1.33 h | t1/2 ([4]; oral gavage 5.0 mg/kg, M): 3.67 h | %F ([4]; oral gavage 10 mg/kg, M): 6.43% | AUClast ([4]; oral gavage 10 mg/kg, M): 453 ng·h/mL | Cmax ([4]; oral gavage 10 mg/kg, M): 103 ng/mL | Tmax ([4]; oral gavage 10 mg/kg, M): 1.00 h | t1/2 ([4]; oral gavage 10 mg/kg, M): 2.98 h | %F ([4]; oral gavage 20 mg/kg, M): 3.93% | AUClast ([4]; oral gavage 20 mg/kg, M): 553 ng·h/mL | Cmax ([4]; oral gavage 20 mg/kg, M): 111 ng/mL | Tmax ([4]; oral gavage 20 mg/kg, M): 1.33 h | t1/2 ([4]; oral gavage 20 mg/kg, M): 4.53 h
